From US10889573B2, “Anthelmintic quinoline-3-carboxamide derivatives” (Bayer Animal Health GMBH, priority 2016, dated 2021)

What was measured:
[1] = test system: Nippostrongylus brasiliensis; test: In vitro assay 2: Nippostrongylus brasiliensis (NIPOBR), acetylcholine esterase readout; details: read-out: activity (reduction of AChE compared to negative control); for inhibition at 1 µg/mL: 1 μg/ml; for inhibition at 10 µg/mL: 10 μg/ml
In short: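 Readout was acetylcholine esterase activity released into the medium, compared with negative control, after exposing adult worms to compounds at final 10 ppm (10 μg/ml) or 1 ppm (1 μg/ml). Worms were first washed in antibiotic/amphotericin B-containing saline; compounds were dissolved in DMSO.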

[2] = test system: Dirofilaria immitis microfilariae; test: In vitro assay 3: Dirofilaria immitis microfilariae (DIROIM L1), motility; details: 72 h, read-out: EC50 (reduction of motility), 72 h incubation
[3] = test system: Dirofilaria immitis third-stage larvae; test: In vitro assay 4: Dirofilaria immitis (DIROIM L4), motility; details: 72 h, read-out: EC50 (reduction of motility)
[4] = test system: Litomosoides sigmodontis third-stage larvae; details: 72 h, read-out: EC50 (reduction of motility)
Experimental: In Vitro Assay 5: Litomosoides sigmodontis (LTMOSI L3)
10 Litomosoides sigmodontis third-stage larvae, which were freshly isolated from the pleural cavity of an infected rodent, were added to wells of a microtitre plate containing a nutrient medium and the test compound in DMSO. Compounds were tested in concentration-response assay in duplicate. Larvae exposed to DMSO and no test compounds were used as negative controls. Larvae were evaluated after 72 h of incubation with the compound. Efficacy was determined as the reduction of motility in comparison to the negative control. Based on the evaluation of a wide concentration range, concentration-response curves as well as EC50-values were calculated.

[5] = test system: Cooperia curticei; details: Cooperia curticei, 120 h, read-out: activity (larval mortality)
Experimental: In Vitro Assay 6: Cooperia curticei (COOPCU L3)
Solvent: dimethyl sulfoxide
Approximately 40 nematode larvae (Cooperia curticei) are transferred into a test tube containing the compound solution.
After 5 days percentage of larval mortality is recorded. 100% efficacy means all larvae are killed; 0% efficacy means no larvae are killed.

[6] = test system: Haemonchus contortus; details: 120 h, read-out: activity (larval mortality)
Experimental: In Vitro Assay 7: Haemonchus contortus (HAEMCO L3)
Solvent: dimethyl sulfoxide
Approximately 40 larvae of the red stomach worm (Haemonchus contortus) are transferred into a test tube containing compound solution.
After 5 days the percentage of larval mortality is recorded. 100% efficacy means all larvae are killed, 0% efficacy means no larvae are killed.

[7] = molecular target: C. elegans Slo-1a (Caenorhabditis elegans, UniProt Q95V25); details: pE50 (negative decadic logarithm of EC50), CHO cells expressing C. elegans Slo-1a, voltage sensitive dye
C. elegans Slo-1a, sequence (Q95V25 whole entry): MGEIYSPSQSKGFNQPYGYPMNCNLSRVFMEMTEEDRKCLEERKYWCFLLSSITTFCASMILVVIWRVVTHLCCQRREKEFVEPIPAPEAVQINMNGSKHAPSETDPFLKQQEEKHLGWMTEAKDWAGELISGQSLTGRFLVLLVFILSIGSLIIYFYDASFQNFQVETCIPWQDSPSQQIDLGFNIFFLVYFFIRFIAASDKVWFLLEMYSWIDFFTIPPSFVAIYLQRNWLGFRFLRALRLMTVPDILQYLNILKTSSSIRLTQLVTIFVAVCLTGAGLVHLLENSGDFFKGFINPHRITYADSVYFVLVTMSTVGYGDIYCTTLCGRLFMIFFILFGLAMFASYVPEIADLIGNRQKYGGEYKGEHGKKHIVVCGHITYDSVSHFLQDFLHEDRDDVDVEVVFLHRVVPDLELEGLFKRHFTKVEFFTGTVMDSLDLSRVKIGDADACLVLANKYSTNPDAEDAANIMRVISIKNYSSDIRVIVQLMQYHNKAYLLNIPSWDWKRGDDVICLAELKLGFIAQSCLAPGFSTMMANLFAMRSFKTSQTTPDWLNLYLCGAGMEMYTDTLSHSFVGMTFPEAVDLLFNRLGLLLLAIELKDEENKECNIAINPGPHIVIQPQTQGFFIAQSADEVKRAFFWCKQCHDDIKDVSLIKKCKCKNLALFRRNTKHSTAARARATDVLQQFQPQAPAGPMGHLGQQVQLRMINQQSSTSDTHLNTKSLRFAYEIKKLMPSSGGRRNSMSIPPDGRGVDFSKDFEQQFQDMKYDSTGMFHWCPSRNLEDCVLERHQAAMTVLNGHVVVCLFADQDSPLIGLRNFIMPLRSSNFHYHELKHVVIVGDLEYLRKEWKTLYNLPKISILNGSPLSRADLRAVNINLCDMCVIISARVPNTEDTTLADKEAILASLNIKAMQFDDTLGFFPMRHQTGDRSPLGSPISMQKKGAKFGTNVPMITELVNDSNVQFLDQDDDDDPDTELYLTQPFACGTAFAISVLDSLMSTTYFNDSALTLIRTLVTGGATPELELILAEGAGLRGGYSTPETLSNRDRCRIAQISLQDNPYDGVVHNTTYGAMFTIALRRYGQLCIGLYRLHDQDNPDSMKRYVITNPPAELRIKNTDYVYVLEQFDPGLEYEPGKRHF

[8] = log P by HPLC on reversed phase columns (Method L0)
Experimental: Measurement of log P values was performed according to EEC directive 79/831 Annex V.A8 by HPLC (High Performance Liquid Chromatography) on reversed phase columns with the following methods: • ^[a] log P value is determined by measurement of LC-UV, in an acidic range, with 0.1% formic acid in water and acetonitrile as eluent (linear gradient from 10% acetonitrile to 95% acetonitrile). • ^[b] log P value is determined by measurement of LC-UV, in a neutral range, with 0.001 molar ammonium acetate solution in water and acetonitrile as eluent (linear gradient from 10% acetonitrile to 95% acetonitrile).
Calibration was done with straight-chain alkan-2-ones (with 3 to 16 carbon atoms) with known log P values (measurement of log P values using retention times with linear interpolation between successive alkanones).

O=C(N[C@H]1CCOc2ccccc21)c1cnc2c(-c3cc(Cl)cc(Cl)c3)cccc2c1N1CCOCC1 [Example 17]
inhibition at 1 µg/mL [1]: > 80%
inhibition at 10 µg/mL [1]: > 80%
EC50 [2]: < 0.1 µg/mL
EC50 [3]: < 0.1 µg/mL
EC50 [4]: < 0.1 µg/mL
mortality at 4 ppm [5]: 100%
mortality at 20 ppm [5]: 100%
mortality at 4 ppm [6]: 100%
mortality at 20 ppm [6]: 100%
EC50 [7]: < 3.16 nM

CNc1c(C(=O)N[C@H]2CCOc3ccccc32)cnc2c(-c3cc(Cl)cc(Cl)c3)cccc12 [Example 24]
inhibition at 1 µg/mL [1]: > 80%
inhibition at 10 µg/mL [1]: > 80%
EC50 [2]: < 0.1 µg/mL
EC50 [3]: < 0.1 µg/mL
EC50 [4]: < 0.1 µg/mL
mortality at 4 ppm [5]: 100%
mortality at 20 ppm [5]: 100%
mortality at 4 ppm [6]: 100%
mortality at 20 ppm [6]: 100%
EC50 [7]: < 3.16 nM

CN(C)c1c(C(=O)N[C@H]2CCOc3ccccc32)cnc2c(-c3cc(Cl)ccc3F)cccc12 [Example 37]
inhibition at 1 µg/mL [1]: > 80%
inhibition at 10 µg/mL [1]: > 80%
EC50 [2]: < 0.1 µg/mL
EC50 [3]: < 0.1 µg/mL
EC50 [4]: < 0.1 µg/mL
mortality at 4 ppm [5]: 100%
mortality at 20 ppm [5]: 100%
mortality at 4 ppm [6]: 100%
mortality at 20 ppm [6]: 100%
EC50 [7]: < 3.16 nM

O=C(N[C@H]1CCOc2ccccc21)c1cnc2c(-c3cccc(Cl)c3Cl)cccc2c1N1CCOCC1 [Example 52, 8-(2,3-dichlorophenyl)-N-[(4S)-3,4-dihydro-2H-chromen-4-yl]-4-(morpholin-4-yl)quinoline-3-carboxamide]
inhibition at 1 µg/mL [1]: > 80%
inhibition at 10 µg/mL [1]: > 80%
EC50 [2]: < 0.1 µg/mL
EC50 [3]: < 0.1 µg/mL
EC50 [4]: < 0.1 µg/mL
mortality at 4 ppm [5]: 100%
mortality at 20 ppm [5]: 100%
mortality at 4 ppm [6]: 100%
mortality at 20 ppm [6]: 100%
EC50 [7]: < 3.16 nM

COc1c(F)ccc(-c2cccc3c(N4CCOCC4)c(C(=O)N[C@H]4CCOc5ccccc54)cnc23)c1F [Example 53]
inhibition at 1 µg/mL [1]: > 80%
inhibition at 10 µg/mL [1]: > 80%
EC50 [2]: < 0.1 µg/mL
EC50 [3]: < 0.1 µg/mL
EC50 [4]: < 0.1 µg/mL
mortality at 4 ppm [5]: 100%
mortality at 20 ppm [5]: 100%
mortality at 4 ppm [6]: 80%
mortality at 20 ppm [6]: 100%
EC50 [7]: < 3.16 nM

CCOc1c(C(=O)N[C@H]2CCc3ccccc32)cnc2c(-c3cc(Cl)cc(Cl)c3)cccc12 [Example 134, 8-(3,5-dichlorophenyl)-N-[(1S)-2,3-dihydro-1H-inden-1-yl]-4-ethoxyquinoline-3-carboxamide]
inhibition at 1 µg/mL [1]: > 80%
inhibition at 10 µg/mL [1]: > 80%
EC50 [2]: < 0.1 µg/mL
EC50 [3]: < 0.1 µg/mL
EC50 [4]: < 0.1 µg/mL
mortality at 4 ppm [5]: 100%
mortality at 20 ppm [5]: 100%
mortality at 4 ppm [6]: 100%
mortality at 20 ppm [6]: 100%

O=C(N[C@H]1CCOc2ccccc21)c1cnc2c(-c3cc(F)cc(Cl)c3)c(F)ccc2c1N1CCOCC1 [Example 143]
inhibition at 1 µg/mL [1]: > 80%
inhibition at 10 µg/mL [1]: > 80%
EC50 [2]: < 0.1 µg/mL
EC50 [3]: < 0.1 µg/mL
EC50 [4]: < 0.1 µg/mL
mortality at 4 ppm [5]: 100%
mortality at 20 ppm [5]: 100%
mortality at 4 ppm [6]: 100%
mortality at 20 ppm [6]: 100%
EC50 [7]: < 3.16 nM

CCOc1c(C(=O)N[C@H]2CCOc3ccccc32)cnc2c(-c3cc(Cl)cc(Cl)c3)cccc12 [Example 341]
inhibition at 1 µg/mL [1]: > 80%
inhibition at 10 µg/mL [1]: > 80%
EC50 [2]: < 0.1 µg/mL
EC50 [3]: < 0.1 µg/mL
EC50 [4]: < 0.1 µg/mL
mortality at 4 ppm [5]: 90%
mortality at 20 ppm [5]: 100%
mortality at 4 ppm [6]: 80%
mortality at 20 ppm [6]: 80%
EC50 [7]: < 3.16 nM

CCc1c(C(=O)N[C@H]2CCOc3ccccc32)cnc2c(-c3cc(Cl)cc(Cl)c3)cccc12 [Example 350, 8-(3,5-dichlorophenyl)-N-[(4S)-3,4-dihydro-2H-chromen-4-yl]-4-ethyl quino-line-3-carboxamide]
inhibition at 1 µg/mL [1]: > 80%
EC50 [2]: < 0.1 µg/mL
EC50 [3]: < 0.1 µg/mL
chromatographic logP [8]: 5.06
EC50 [4]: < 0.1 µg/mL
mortality at 4 ppm [5]: 100%
mortality at 20 ppm [5]: 100%
mortality at 4 ppm [6]: 100%
mortality at 20 ppm [6]: 100%
EC50 [7]: < 3.16 nM

COc1c(C(=O)N[C@H]2CCOc3ccccc32)cnc2c(-c3cc(Cl)cc(Cl)c3)cccc12 [Example 373, 8-(3,5-dichlorophenyl)-N-[(4S)-3,4-dihydro-2H-chromen-4-yl]-4-methoxyquinoline-3-carboxamide]
inhibition at 1 µg/mL [1]: > 80%
inhibition at 10 µg/mL [1]: > 80%
EC50 [3]: < 1 µg/mL
EC50 [4]: < 1 µg/mL
mortality at 4 ppm [5]: 100%
mortality at 20 ppm [5]: 100%
mortality at 4 ppm [6]: 100%
mortality at 20 ppm [6]: 100%
EC50 [7]: < 3.16 nM

O=C(N[C@H]1CCOc2ccccc21)c1cnc2c(-c3cc(Cl)cc(Cl)c3)cccc2c1N1CC(F)(F)C1 [Example 394]
inhibition at 1 µg/mL [1]: > 80%
EC50 [2]: < 0.1 µg/mL
EC50 [3]: < 0.1 µg/mL
EC50 [4]: < 0.1 µg/mL
mortality at 20 ppm [5]: 80%
mortality at 4 ppm [6]: 80%
mortality at 20 ppm [6]: 80%
EC50 [7]: 3.16 to 31.6 nM

O=C(N[C@H]1CCOc2ccccc21)c1cnc2c(-c3cc(Cl)cc(Cl)c3)cccc2c1-c1ccncc1 [Example 396]
inhibition at 1 µg/mL [1]: > 80%
EC50 [2]: < 0.1 µg/mL
EC50 [3]: < 0.1 µg/mL
EC50 [4]: < 0.1 µg/mL
mortality at 4 ppm [5]: 100%
mortality at 20 ppm [5]: 100%
mortality at 4 ppm [6]: 90%
mortality at 20 ppm [6]: 100%
EC50 [7]: < 3.16 nM
